# Legend:
# Assay in all cases: cells
# NCI-H2405 = format: functional, cell-based, Homo sapiens; conditions: Homo sapiens, NCI-H2405;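 further: growth inhibition of the human cell line, read out with a cell viability assay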
# Description: SANGER: Inhibition of human NCI-H2405 cell growth in a cell viability assay.
# CAPAN-1 = format: functional, cell-based, Homo sapiens; conditions: Homo sapiens, CAPAN-1;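 further: growth suppression of CAPAN-1 cells, read out by a cell viability assay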
# Description: SANGER: Inhibition of human CAPAN-1 cell growth in a cell viability assay.
# UO-31 = format: functional, cell-based, Homo sapiens; conditions: Homo sapiens, UO-31;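 further: cell viability assay measuring inhibition of cell growth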
# Description: SANGER: Inhibition of human U031 cell growth in a cell viability assay.
# Calu-3 = format: functional, cell-based, Homo sapiens; conditions: Homo sapiens, Calu-3;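 further: growth inhibition of human Calu-3 cells, determined with a cell viability assay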
# Description: SANGER: Inhibition of human Calu-3 cell growth in a cell viability assay.
# NCI-H64 = format: functional, cell-based, Homo sapiens; conditions: Homo sapiens, NCI-H64;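 further: growth inhibition of NCI-H64 cells, read out with a cell viability assay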
# Description: SANGER: Inhibition of human NCI-H64 cell growth in a cell viability assay.
# PC-3 = format: functional, cell-based, Homo sapiens; conditions: Homo sapiens, PC-3;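 further: cell viability assay measuring growth inhibition of PC-3 cells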
# Description: SANGER: Inhibition of human PC-3 cell growth in a cell viability assay.
# CAL-33 = format: functional, cell-based, Homo sapiens; conditions: Homo sapiens, CAL-33;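 further: growth inhibition of CAL-33 cells, read out with a cell viability assay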
# Description: SANGER: Inhibition of human CAL-33 cell growth in a cell viability assay.
# SW1417 = format: functional, cell-based, Homo sapiens; conditions: Homo sapiens, SW1417;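 further: growth inhibition of human SW1417 cells, read out with a cell viability assay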
# Description: SANGER: Inhibition of human SW1417 cell growth in a cell viability assay.
# MDA-MB-453 = format: functional, cell-based, Homo sapiens; conditions: Homo sapiens, MDA-MB-453
# Description: SANGER: Inhibition of human MDA-MB-453 cell growth in a cell viability assay.
# NCI-H2081 = format: functional, cell-based, Homo sapiens; conditions: Homo sapiens, NCI-H2081;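 further: growth inhibition of human NCI-H2081 cells, read out with a cell viability assay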
# Description: SANGER: Inhibition of human NCI-H2081 cell growth in a cell viability assay.
# MDA-MB-415 = format: functional, cell-based, Homo sapiens; conditions: Homo sapiens, MDA-MB-415
# MKN-7 = format: functional, cell-based, Homo sapiens; conditions: Homo sapiens, MKN-7;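 further: growth inhibition of MKN-7 cells, read out with a cell viability assay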
# Description: SANGER: Inhibition of human MKN7 cell growth in a cell viability assay.
# TUR = format: functional, cell-based, Homo sapiens; conditions: Homo sapiens, TUR;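 further: growth inhibition of human TUR cells, read out with a cell viability assay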
# Description: SANGER: Inhibition of human TUR cell growth in a cell viability assay.
# NCI-H2052 = format: functional, cell-based, Homo sapiens; conditions: Homo sapiens, NCI-H2052;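 further: growth inhibition of NCI-H2052 cells, read out with a cell viability assay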
# Description: SANGER: Inhibition of human NCI-H2052 cell growth in a cell viability assay.
# NCI-H345 = format: functional, cell-based, Homo sapiens; conditions: Homo sapiens, NCI-H345;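 further: growth inhibition of NCI-H345 cells measured with a cell viability assay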
# Description: SANGER: Inhibition of human NCI-H345 cell growth in a cell viability assay.
# BCPAP = format: functional, cell-based, Homo sapiens; conditions: Homo sapiens, BCPAP;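 further: growth inhibition of BCPAP cells, read out in a cell viability assay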
# Description: SANGER: Inhibition of human BCPAP cell growth in a cell viability assay.
# A673 = format: functional, cell-based, Homo sapiens; conditions: Homo sapiens, A673;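 further: growth inhibition of human A673 cells, read out through a cell viability assay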
# Description: SANGER: Inhibition of human A673 cell growth in a cell viability assay.
# FaDu = format: functional, cell-based, Homo sapiens; conditions: Homo sapiens, FaDu;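 further: cell viability readout of growth inhibition in FaDu cells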
# Description: SANGER: Inhibition of human FADU cell growth in a cell viability assay.
# 8505C = format: functional, cell-based, Homo sapiens; conditions: Homo sapiens, 8505C
# Description: SANGER: Inhibition of human 8505C cell growth in a cell viability assay.
# COLO-680N = format: functional, cell-based, Homo sapiens; conditions: Homo sapiens, COLO-680N;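 further: cell viability assay used to measure inhibition of COLO-680N cell growth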
# Description: SANGER: Inhibition of human COLO-680N cell growth in a cell viability assay.
# HSC-4 = format: functional, cell-based, Homo sapiens; conditions: Homo sapiens, HSC-4;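 further: growth inhibition of human HSC-4 cells, read out with a cell viability assay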
# Description: SANGER: Inhibition of human HSC-4 cell growth in a cell viability assay.
# CAMA-1 = format: functional, cell-based, Homo sapiens; conditions: Homo sapiens, CAMA-1;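 further: growth inhibition of CAMA-1 cells, read out with a cell viability assay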
# Description: SANGER: Inhibition of human CAMA-1 cell growth in a cell viability assay.
# COR-L23 = format: functional, cell-based, Homo sapiens; conditions: Homo sapiens, COR-L23;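 further: cell viability assay measuring how strongly compounds suppress growth of COR-L23 cells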
# Description: SANGER: Inhibition of human COR-L23 cell growth in a cell viability assay.
# EFM-19 = format: functional, cell-based, Homo sapiens; conditions: Homo sapiens, EFM-19;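 further: growth inhibition of human EFM-19 cells, measured in a cell viability assay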
# Description: SANGER: Inhibition of human EFM-19 cell growth in a cell viability assay.
# KYSE-450 = format: functional, cell-based, Homo sapiens; conditions: Homo sapiens, KYSE-450;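 further: cell growth inhibition measured by a viability assay in human KYSE-450 cells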
# Description: SANGER: Inhibition of human KYSE-450 cell growth in a cell viability assay.
# MG-63 = format: functional, cell-based, Homo sapiens; conditions: Homo sapiens, MG-63;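 further: growth inhibition of human MG-63 cells, read out with a cell viability assay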
# Description: SANGER: Inhibition of human MG-63 cell growth in a cell viability assay.
# LK-2 = format: functional, cell-based, Homo sapiens; conditions: Homo sapiens, LK-2;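 further: growth inhibition of LK-2 cells, read out with a viability assay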
# Description: SANGER: Inhibition of human LK-2 cell growth in a cell viability assay.
# 23132-87 = format: functional, cell-based, Homo sapiens; conditions: Homo sapiens
# Description: SANGER: Inhibition of human 23132-87 cell growth in a cell viability assay.
# HO-1-N-1 = format: functional, cell-based, Homo sapiens; conditions: Homo sapiens, HO-1-N-1;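 further: growth inhibition of human HO-1-N-1 cells, read out with a cell viability assay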
# Description: SANGER: Inhibition of human HO-1-N-1 cell growth in a cell viability assay.
# NALM-6 = format: functional, cell-based, Homo sapiens; conditions: Homo sapiens, NALM-6;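 further: growth inhibition of NALM-6 cells, read out with a cell viability assay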
# Description: SANGER: Inhibition of human NALM-6 cell growth in a cell viability assay.
# PANC-08-13 = format: functional, cell-based, Homo sapiens; conditions: Homo sapiens, PANC-08-13;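 further: cell growth inhibition, measured with a cell viability assay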
# Description: SANGER: Inhibition of human PANC-08-13 cell growth in a cell viability assay.
# LCLC-103H cell line = format: functional, cell-based, Homo sapiens; conditions: Homo sapiens, LCLC-103H
# Description: SANGER: Inhibition of human LCLC-103H cell growth in a cell viability assay.
# SUP-T1 = format: functional, cell-based, Homo sapiens; conditions: Homo sapiens, SUP-T1;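 further: growth inhibition of human SUP-T1 cells, read out as cell viability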
# Description: SANGER: Inhibition of human SUP-T1 cell growth in a cell viability assay.
# DU-145 = format: functional, cell-based, Homo sapiens; conditions: Homo sapiens, DU-145
# Description: SANGER: Inhibition of human DU-145 cell growth in a cell viability assay.
# ECC4 = format: functional, cell-based, Homo sapiens; conditions: Homo sapiens, ECC4;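 further: growth inhibition of ECC4 cells, read out with a cell viability assay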
# Description: SANGER: Inhibition of human ECC4 cell growth in a cell viability assay.
# HuCCT-1 = format: functional, cell-based, Homo sapiens, HuCCT1; conditions: Homo sapiens, HuCCT-1;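 further: growth inhibition of HuCCT-1 cells, read out by a cell viability assay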
# Description: SANGER: Inhibition of human HuCCT1 cell growth in a cell viability assay.
# SK-MEL-30 = format: functional, cell-based, Homo sapiens; conditions: Homo sapiens, SK-MEL-30;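 further: growth inhibition of SK-MEL-30 cells, determined with a cell viability assay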
# Description: SANGER: Inhibition of human SK-MEL-30 cell growth in a cell viability assay.
# HCC70 = format: functional, cell-based, Homo sapiens; conditions: Homo sapiens, HCC70;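 further: cell viability assay measuring how strongly the compound suppresses proliferation of HCC70 cells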
# Description: SANGER: Inhibition of human HCC70 cell growth in a cell viability assay.
# SW1463 = format: functional, cell-based, Homo sapiens; conditions: Homo sapiens, SW1463;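 further: growth inhibition of SW1463 cells, determined with a cell viability assay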
# Description: SANGER: Inhibition of human SW1463 cell growth in a cell viability assay.
# HMV-2 cell line = format: functional, cell-based, Homo sapiens; conditions: Homo sapiens, HMV-2;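 further: growth inhibition of HMV-II cells, read out with a cell viability assay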
# Description: SANGER: Inhibition of human HMV-II cell growth in a cell viability assay.
# CAL-62 = format: functional, cell-based, Homo sapiens; conditions: Homo sapiens, CAL-62;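 further: growth inhibition of CAL-62 cells, read out with a cell viability assay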
# Description: SANGER: Inhibition of human CAL-62 cell growth in a cell viability assay.
# SK-MES-1 = format: functional, cell-based, Homo sapiens; conditions: Homo sapiens, SK-MES-1;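 further: growth inhibition of human SK-MES-1 cells, read out with a cell viability assay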
# Description: SANGER: Inhibition of human SK-MES-1 cell growth in a cell viability assay.
# A-431 = format: functional, cell-based, Homo sapiens; conditions: Homo sapiens, A-431;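 further: growth inhibition of A-431 cells, determined with a cell viability read-out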
# Description: SANGER: Inhibition of human A431 cell growth in a cell viability assay.
# SW13 = format: functional, cell-based, Homo sapiens; conditions: Homo sapiens, SW13;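 further: IC50 is inhibition of SW13 cell growth, read out with a cell viability assay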
# Description: SANGER: Inhibition of human SW13 cell growth in a cell viability assay.
# ACHN = format: functional, cell-based, Homo sapiens; conditions: Homo sapiens, ACHN;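 further: cell viability read-out used to gauge how strongly growth of human ACHN cells is suppressed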
# Description: SANGER: Inhibition of human ACHN cell growth in a cell viability assay.
# BFTC-905 = format: functional, cell-based, Homo sapiens; conditions: Homo sapiens, BFTC-905
# Description: SANGER: Inhibition of human BFTC-905 cell growth in a cell viability assay.
smiles,measurement,setting,value
COc1cccc2c1C(=O)c1c(O)c3c(c(O)c1C2=O)C[C@@](O)(C(=O)CO)C[C@@H]3O[C@H]1C[C@H](N)[C@H](O)[C@H](C)O1 [DOXORUBICIN],IC50,NCI-H2405,234 nM
same,IC50,CAPAN-1,51.8 nM
same,IC50,UO-31,354 nM
same,IC50,Calu-3,56 nM
same,IC50,NCI-H64,133 nM
same,IC50,PC-3,957 nM
same,IC50,CAL-33,67.9 nM
same,IC50,SW1417,363 nM
same,IC50,MDA-MB-453,> 1020 nM
same,IC50,NCI-H2081,234 nM
same,IC50,MDA-MB-415,> 1020 nM
same,IC50,MKN-7,690 nM
same,IC50,TUR,76.3 nM
same,IC50,NCI-H2052,160 nM
same,IC50,NCI-H345,> 1020 nM
same,IC50,BCPAP,52.5 nM
same,IC50,A673,216 nM
same,IC50,FaDu,102 nM
same,IC50,8505C,19.6 nM
same,IC50,COLO-680N,33.9 nM
same,IC50,HSC-4,75.8 nM
same,IC50,CAMA-1,159 nM
same,IC50,COR-L23,32 nM
same,IC50,EFM-19,478 nM
same,IC50,KYSE-450,44.7 nM
same,IC50,MG-63,22.1 nM
same,IC50,LK-2,581 nM
same,IC50,23132-87,15.4 nM
same,IC50,HO-1-N-1,223 nM
same,IC50,NALM-6,18.6 nM
same,IC50,PANC-08-13,> 1020 nM
same,IC50,LCLC-103H cell line,20.5 nM
same,IC50,SUP-T1,79.7 nM
same,IC50,DU-145,73.7 nM
same,IC50,ECC4,> 1020 nM
same,IC50,HuCCT-1,72.9 nM
same,IC50,SK-MEL-30,35.6 nM
same,IC50,HCC70,> 1020 nM
same,IC50,SW1463,> 1020 nM
same,IC50,HMV-2 cell line,22.6 nM
same,IC50,CAL-62,32.8 nM
same,IC50,SK-MES-1,31.5 nM
same,IC50,A-431,20.9 nM
same,IC50,SW13,115 nM
same,IC50,ACHN,49.3 nM
same,IC50,BFTC-905,16.2 nM
O=C(O)c1ccc(-c2c[nH]c3ncc(-c4ccccc4)cc23)cc1C1CCCC1 [GSK-650394],IC50,NCI-H2405,> 16000 nM
same,IC50,CAPAN-1,> 16000 nM
same,IC50,UO-31,> 16000 nM
same,IC50,Calu-3,10700 nM
same,IC50,NCI-H64,> 16000 nM
same,IC50,PC-3,> 16000 nM
same,IC50,CAL-33,9960 nM
same,IC50,SW1417,> 16000 nM
same,IC50,MDA-MB-453,> 16000 nM
same,IC50,NCI-H2081,> 16000 nM
same,IC50,MDA-MB-415,> 16000 nM
same,IC50,MKN-7,> 16000 nM
same,IC50,TUR,4670 nM
same,IC50,NCI-H2052,> 16000 nM
same,IC50,NCI-H345,> 16000 nM
same,IC50,BCPAP,13000 nM
same,IC50,A673,> 16000 nM
same,IC50,FaDu,> 16000 nM
same,IC50,8505C,7780 nM
same,IC50,COLO-680N,> 16000 nM
same,IC50,HSC-4,> 16000 nM
same,IC50,CAMA-1,> 16000 nM
same,IC50,COR-L23,4760 nM
same,IC50,EFM-19,> 16000 nM
same,IC50,KYSE-450,5600 nM
same,IC50,MG-63,> 16000 nM
same,IC50,LK-2,> 16000 nM
same,IC50,23132-87,10300 nM
same,IC50,HO-1-N-1,> 16000 nM
same,IC50,NALM-6,9730 nM
same,IC50,PANC-08-13,> 16000 nM
same,IC50,LCLC-103H cell line,3910 nM
same,IC50,SUP-T1,> 16000 nM
same,IC50,DU-145,> 16000 nM
same,IC50,ECC4,> 16000 nM
same,IC50,HuCCT-1,> 16000 nM
same,IC50,SK-MEL-30,7970 nM
same,IC50,HCC70,> 16000 nM
same,IC50,SW1463,> 16000 nM
same,IC50,HMV-2 cell line,7510 nM
same,IC50,CAL-62,4770 nM
same,IC50,SK-MES-1,16000 nM
same,IC50,A-431,1860 nM
same,IC50,SW13,> 16000 nM
same,IC50,ACHN,10800 nM
same,IC50,BFTC-905,785 nM
